In paper PMC3774728, “Identification of the Plant Compound Geraniin as a Novel Hsp90 Inhibitor” (PLoS ONE, 2013):

How the values were obtained:
[1] = tested on: Hsp70, Hsp90 and Hsp90 client proteins in Jurkat cells; assay: Western blot of Hsp70 and Hsp90 client proteins, Jurkat; assay type: cell-based, human; conditions: 24 h
Method: Treated cells were harvested and disrupted by freeze−thawing in RIPA buffer (50 mM Hepes, 10 mM EDTA, 150 mM NaCl, 1% NP-40, 0.5% sodium deoxycholate, 0.1% SDS, pH 7.4), supplemented with protease inhibitors cocktail (Sigma-Aldrich). Cell debris was removed by centrifugation at 4°C and the supernatant protein concentration was determined, according to the Bio-Rad Protein assay (Biorad Laboratories, CA, USA). Total proteins (30 µg) were separated by SDS-PAGE under denatured reducing conditions. Separated proteins were then transferred to nitrocellulose membranes and blocked for 3 h with a solution containing 3% BSA in 50 mM Tris, 200 mM NaCl, 0.1% Tween 20, before incubation at 4°C overnight with the different primary antibodies (diluted 1∶1000) against specific proteins. After washing, the membranes were incubated with an appropriate peroxidase-conjugate secondary antibodies at room temperature (1 h). Immunoreactive protein bands were detected by enhanced chemiluminescence reagent (ECL, Rockford, USA), according to the manufacturer’s instructions. Quantitative densitometry analyses were performed using a Gel Doc 2000 system (Biorad Laboratories, CA, USA).
Figure 7 Effect of geraniin on Hsp90 client protein levels. Equal amounts (30 µg) of whole-cell lysates were separated on SDS-PAGE and client proteins were visualized by western blot analysis using specific antibodies. Actin was used as loading control. […] The blots shown are representative of three different experiments with similar results.

Hsp90α ATPase activity = biological target: T1, Hsp90α ATPase activity (Homo sapiens, UniProt P07900); assay: ATP hydrolysis inhibition (ADP Hunter Plus assay); assay type: biochemical; conditions: 40 nM Hsp90α, 100 µM ATP, 60 min, 40°C
T1 construct: purchased Assay Designs (Ann Arbor, MI, USA)
Method: The assay was performed using the Discover RX ADP HunterTM Plus Assay kit, following the manufacturer’s instructions. ATPase reactions were carried out for 60 min at 40°C temperature in 100 mM Tris pH 7.4, 100 µM ATP and 40 nM Hsp90α in the presence of different concentrations of geraniin or 17-AAG. ADP generation was measured using a Perkin Elmer LS 55 fluorimeter (540 nm excitation and 620 nm emission). Fluorescence intensity values measured for Hsp90α without any compound were set at 100% of enzyme activity. The background reaction rate was measured in a reaction lacking enzyme or substrate and subtracted from the experimental rates.
Figure 3 Inhibition of Hsp90α activity. ATPase activity of the chaperone was evaluated in the presence of different concentrations of geraniin, 17-AAG and HA (A). Data are reported as the residual ATPase activity (%) compared to that observed for an untreated sample. Data are the mean of three independent experiments performed in triplicate and were analyzed by t test (HA vs testing compounds): The error bar represents the standard deviation of nine measurements, while * indicates significance at P<0.01. Aggregation kinetics of citrate synthase (CS) at 43°C determined by light scattering (B). […]

recombinant Hsp90α = biological target: T2, recombinant Hsp90α (Homo sapiens, UniProt P07900); assay: Surface plasmon resonance binding to immobilized Hsp90α; conditions: SPR, immobilized Hsp90α, 25°C, single-site bimolecular model, 0.025-1 µM; read-out: KD
T2 construct: purchased Assay Designs (Ann Arbor, MI, USA)
Method: SPR analyses were carried out according to our previously published procedures, [23]. Briefly, SPR analyses were performed using a Biacore 3000 optical biosensor equipped with research−grade CM5 sensor chips (GE Healthcare). Using this platform, two separate recombinant Hsp90α surfaces, a BSA surface and one unmodified reference surface were prepared for simultaneous analyses. Proteins (100 µg mL^−1 in 10 mM CH3COONa, pH 5.0) were immobilized on individual sensor chip surfaces at a flow rate of 5 µL min^−1 using standard amine−coupling protocols to obtain densities of 8–12 kRU. Polyphenols, as well as 17-AAG and hardwickiic acid (HA), were dissolved in 100% DMSO to obtain 4 mM solutions, and diluted 1∶200 (v/v) in PBS (10 mM NaH2PO4, 150 mM NaCl, pH 7.4) to a final DMSO concentration of 0.5%. […] Binding experiments were performed at 25°C, using a flow rate of 50 µL min^−1, with 60 s monitoring of association and 300 s monitoring of dissociation. Simple interactions were suitably fitted to a single−site bimolecular interaction model (A+B = AB), yielding a single K D. Sensorgram elaborations were performed using the BIAevaluation software provided by GE Healthcare.
Putative interactions of different plant-derived phenolic compounds with Hsp90α were evaluated by a SPR-based approach.

Kd (recombinant Hsp90α): 415 ± 27 nM
SMILES: O=C1O[C@H]2[C@@H]3OC(=O)c4cc(O)c(O)c(O)c4-c4c(cc(O)c(O)c4O)C(=O)OC[C@H]2O[C@@H](OC(=O)c2cc(O)c(O)c(O)c2)[C@@H]3OC(=O)c2cc(O)c(O)c3c2[C@@H]2C1=CC(=O)[C@](O)(O3)C2(O)O [Compound 54, geraniin]
Hsp70 expression increase ([1]; 1 µM geraniin): 3.5±0.12 fold | level of Akt [1]: unaffected | level of the client proteins c-Raf, pAkt and EGFR ([1]; IC50 and lower and higher concentrations): dose-dependent decrease | Hsp90α ATPase activity inhibition (Hsp90α ATPase activity): inhibit Hsp90α ATPase activity in a dose−dependent manner
